Tests used:
Assay type in all cases: in vivo
[1] = tested on: Housefly [Musca domestica]; assay: Housefly insecticidal test (HF); settings: per 25 female houseflies, 48 hours
[2] = tested on: Cabbage Looper [Trichoplusia ni (Hubner)]; assay: Cabbage looper test (CL); settings: second-instar larvae, 3-5 days, percent in solution
[3] = tested on: Maize weevil [Sitophilus Zeamais (Motschulsky)]; assay: Maize weevil test (MW); settings: adult weevils, treated corn seeds, 48 hours, percent in solution
Method in brief: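 Adult weevils (10) were placed with four corn seeds that had been dipped 2-3 s in compound dissolved in 50:50 acetone:water, then dried, and held at about 25° C. Mortality was scored at 48 h. LC50 was taken from dosage-mortality curves and expressed as percent compound in solution, from a 0.01% top concentration.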

[4] = tested on: Aster Leafhopper [Macrosteles fascifrens (Stal)]; assay: Aster leafhopper test (LH); settings: adults/nymphs, 48 hours, percent in solution
[5] = tested on: Tobacco Budworm [Heliothis virescens (Fabricius)] eggs; assay: Tobacco budworm egg test (TBW-E); settings: percent in solution

Row | SMILES | LC50 HF [1] [µg] | LC50 CL [2] [%] | LC50 MW [3] [%] | LC50 LH [4] [%] | LC50 TBW E [5] [%]
1 | CC(C)C(=Nc1ccc(OC(F)(F)F)cc1)OCc1cccc(Cc2ccccc2)c1 [Compound 538] | 75 | > 0.1 | > 0.01 | > 0.05 | 
2 | CC(C)C(=Nc1ccc2c(c1)OCO2)OCc1cccc(Oc2ccc(Cl)cc2)n1 [Compound 466] | 13 | 0.0008 | 0.01 | > 0.05 | > 0.1
3 | CC(C)C(=Nc1ccc(C(F)(F)F)cc1)OCc1cccc(Cc2ccccc2)c1 [Compound 543] | < 100 | 0.0008 | > 0.01 | < 0.05 | > 0.1
4 | CCc1ccc(N=C(OCc2cccc(Oc3ccccc3)c2)C(C)C)cc1 [Compound 161] | 15 | 0.0014 |  | 0.002 | 0.07
5 | CC(C)C(=Nc1ccc(Br)cc1)OCc1cccc(Oc2ccccc2)c1 [Compound 131] | 17 | 0.0045 |  | 0.005 | > 0.1
6 | COc1ccc(OC)c(N=C(OCc2cccc(Oc3ccccc3)c2)C(C)C)c1 [Compound 69] | > 100 | 0.09 |  | > 0.05 | > 0.1
7 | COc1c(Cl)cc(N=C(OCc2cccc(Oc3ccccc3)c2)C(C)C)cc1Cl [Compound 91] | 37 | 0.002 |  | 0.003 | > 0.01
8 | CC(C)(C)C(=Nc1ccc(Br)cc1)OCc1cccc(Oc2ccccc2)c1 [Compound 135] | > 100 | 0.004 |  | > 0.05 | > 0.1
9 | CC(C)(Cl)C(=Nc1ccc(C#N)c(Cl)c1)OCc1cccc(Oc2ccccc2)c1 [Compound 108] | 44 | 0.002 |  | > 0.01 | > 0.1
10 | CC(C)C(=Nc1cccc([N+](=O)[O-])c1)OCc1cccc(Oc2ccc(Cl)cc2)c1 [Compound 271] | 27 | 0.0004 |  | > 0.05 | 0.1
11 | CC(C)C(=Nc1ccc(C(F)(F)F)c(Cl)c1)OCc1cccc(Oc2ccccc2)c1 [Compound 83] | > 100 | 0.007 |  | > 0.05 | > 0.1
12 | CC(C)C(=Nc1ccc2c(c1)CCC2)OCc1cccc(Oc2ccccc2)c1 [Compound 187] | 15 | 0.0025 |  | 0.0025 | > 0.1
13 | Cc1ccc(Oc2cccc(COC(=Nc3ccc(F)c(Cl)c3)C(C)C)c2)cc1 [Compound 225] | > 100 | 0.0025 |  | > 0.05 | > 0.1
14 | CC(C)C(=Nc1cccc(C(F)(F)F)c1)OCC#CCOc1ccccc1 [Compound 548] | > 100 | < 0.1 |  | > 0.05 | > 0.1
15 | CC(C)C(=Nc1ccc2c(c1)OC(C)(C)O2)OCc1ccc(F)c(Oc2ccccc2)c1 [Compound 242] | < 100 | 0.00025 |  | > 0.05 | > 0.1
16 | CC(C)CC(=Nc1cc(Cl)cc(Cl)c1)OCc1cccc(Oc2ccccc2)c1 [Compound 10] | > 100 | 0.01 |  | > 0.05 | > 0.1
17 | CCc1ccc(N=C(OCc2cccc(Oc3ccc(F)cc3)c2)C(C)C)cc1 [Compound 159] | 25 | 0.001 |  | 0.0025 | 0.08

Row | SMILES | LC50 HF [1] [µg] | LC50 CL [2] [%] | LC50 MW [3] [%] | LC50 LH [4] [%] | LC50 TBW E [5] [%]
18 | CC(C)C(=Nc1cc(Cl)cc(Cl)c1)OCc1cccc(Oc2ccccc2)c1 [Compound 16] | 20 | 0.004 |  | 0.0005 | 0.04
19 | CC(C)C(=Nc1ccc(C(C)C)cc1)OCc1cccc(Oc2ccc(F)cc2)c1 [Compound 228] | > 100 | 0.0025 |  | > 0.05 | > 0.1
20 | Fc1ccc(N=C(OCc2cccc(Oc3ccccc3)c2)C(Cl)=C(Cl)Cl)cc1 [Compound 49] | > 100 | 0.007 |  | > 0.05 | > 0.05
21 | CCCC(=Nc1ccc2c(c1)OCO2)OCc1cccc(Oc2ccccc2)c1 [Compound 188] | 12 | 0.002 |  | > 0.05 | > 0.1
22 | CCc1cccc(N=C(OCc2cccc(Oc3ccccc3)c2)C(C)C)c1 [Compound 154] | 25 | 0.004 |  | > 0.05 | 0.1
23 | CC(C)C(=Nc1ccc(I)cc1)OCc1cccc(Oc2ccccc2)c1 [Compound 137] | 18 | 0.003 |  | 0.008 | 0.04
24 | CC(C)C(=Nc1ccc2c(c1)OCO2)OCc1cccc(Oc2ccc(F)cc2)n1 [Compound 465] | 8 | 0.0017 |  | 0.0025 | 0.027
25 | Cc1ccc(N=C(OCc2cccc(Oc3ccccc3)c2)C(C)C)cc1Cl [Compound 90] | > 100 | > 0.1 |  | 0.001 | 0.016
26 | CC(C)C(=Nc1c(F)cc(F)cc1Br)OCc1cccc(Oc2ccccc2)c1 [Compound 129] | > 100 | 0.005 |  | 0.01 | > 0.1
27 | CSc1ccc(Oc2cccc(COC(=Nc3ccc(F)cc3)C(C)C)c2)cc1 [Compound 257] | > 100 | 0.008 |  | > 0.05 | > 0.1
28 | CCOC(=O)c1cc(N=C(OCc2cccc(Oc3ccccc3)c2)C(C)C)ccc1Cl [Compound 102] | > 100 | 0.075 |  | > 0.05 | > 0.1
29 | Cc1c(Cl)cc(N=C(OCc2cccc(Oc3ccccc3)c2)C(C)C)cc1Cl [Compound 101] | 81 | 0.0045 |  | 0.0008 | > 0.1
30 | CC(C)C(=Nc1ccc(OC(F)(F)F)cc1)OCc1cccc(Oc2ccccc2)c1 [Compound 70] | < 100 | < 0.1 |  | > 0.05 | 0.01
31 | CC(C)C(=Nc1c(Cl)cc([N+](=O)[O-])cc1Cl)OCc1cccc(Oc2ccccc2)c1 [Compound 92] | > 100 | 0.015 |  | > 0.05 | > 0.1
32 | CC(C)C(=Nc1cc(F)ccc1Cl)OCc1ccc(F)c(Oc2ccc(F)cc2)c1 [Compound 303] | > 100 | 0.0015 |  | 0.0005 | > 0.1
33 | Fc1ccc(Oc2cccc(COC(=Nc3ccc(F)c(Cl)c3)C(F)(F)C(F)(F)F)c2)cc1 [Compound 258] | > 100 | 0.003 |  | > 0.05 | > 0.1

Reference: US5089623A, “Certain imidate insecticides” (Imperial Chemical Industries Plc, priority 1990, dated 1992)
